Measurements from patent publication US7091351B2, “Vanadium compounds for treating cancer” (Parker Hughes Institute, priority 1998, dated 2006).

Assays:
Assay type in all cases: cell-based, human
[1] = tested on: NALM-6 B-lineage acute lymphoblastic leukemia cells; assay: MTT cytotoxicity assay of vanadocenes, NALM-6 cells; conditions: 24 h
Protocol: Human testicular cancer cell lines, Tera-2 (embryonal carcinoma) and Ntera-2 (pluripotent embryonal carcinoma) were obtained from the American Type Culture Collection (ATCC) (Rockeville, Md.) and propagated in T-25, T-75, or T-150 cm^2 tissue culture flasks (Corning Corp., Corning, N.Y.) in McCoy's 5A medium and Dulbecco's modified Eagle's medium respectively. Both media were supplemented with 10% fetal calf serum (FCS), 4 mM glutamine, 100 U/ml penicillin G, and […] streptomycin sulfate. All tissue culture reagents were obtained from Life Technologies Inc. (GIBCO-BRL), Gaithersburg, Md. Cell lines were cultivated for a minimum of two passages after thawing prior to experimentation. Other cell lines that were used in this study were the human B-lineage acute lymphoblastic leukemia (ALL) cell line NALM-6. Uckun, F. M., Evans, W. E., Forsyth, C. J., Waddick, K. G., Tuel-Ahlgren, L., Chelstrom, L. M., Burkhardt, A., Bolen, J., Myers, D. E. Biotherapy of B-cell precursor leukemia by targeting genistein to CD19-associated tyrosine kinase. Science (Washington DC) 267:886–91, 1995; T-lineage ALL cell line MOLT-3, Waurzyniak, B., Shneider, E. A., Tumer, N., Yanishevski, Y., Gunther, R., Chelstrom, L., Wendorf, H., Myers, D. E., Irvin, J. D., Messinger, Y., Ek, O., Zeren, T., Chandan-Langlie, M., Evans, W. E., Uckun, F. M. In vivo toxicity, pharmacokinetics, and antileukemic activity of TXU (anti-CD7)-pokeweed antiviral protein immunotoxin. Clinical Cancer Research 3:881–890, 1997; AML cell line HL-60, Perentesis, J. P., Waddick, K. G., Bendel, A. E., Shao, Y., Warman, B. E., Chandan-Langlie, M., and Uckun, F. M. Induction of apoptosis in multi-drug resistant andradiation-resistant acute myeloid leukemia cells by a recombinant fusion toxin directed against the granulocyte macrophage colony stimulating factor receptor. Clin. Cancer Res. 3:347–355, 1997; breast cancer cell lines MDA-MB-231 and BT-20, Uckun, F. M., Narla, R. K., Jun, X., Zeren, T., Venkatachalam, T., Waddick, K. G., Rostostev, A., Myers, D. E. Cytotoxic activity of EGF-genstein against breast cancer cells. Clin. Cancer Res. 4:901–912, 1998; glioblastoma cell lines U87 and U373, Narla, R. K., Liu, X., Myers, D. E., and Uckun, F. M. 4-(3′-Bromo-4′hydroxylphenyl)-amino-6,7-dimethoxyquinazoline (WHI-P154): A novel quinazoline derivative with potent cytotoxic activity against human glioblastoma cells. Clin. Cancer Res. 4:1405–1414, 1998.
MTT (3-[4,5-dimethyl thiazol-2-yl]-2,5-diphenyltetrazolium bromide)-based colorimetric assays were used for evaluation of the cytotoxicity of vanadocene compounds. Mosmann, T. Rapid colorimetric assay for cellular growth and survival: application to proliferation and cytotoxicity assays. J. Immunol. Methods, 65: 55–63, 1983. Briefly, cells were harvested with 0.125% (w/v) trypsin-0.02% EDTA (GIBCO-BRL) from exponential-phase maintenance cultures and centrifuged (300 g×5 min). After suspension and counting, cells were dispensed within triplicate 96-well tissue culture plates in 100 μl volumes. After 24 h incubation, the culture medium was discarded and replaced with 100 μl of fresh medium containing serial two-fold dilutions of drugs in medium to yield 1.9 μM to 250 μM. All compounds were reconstituted in DMSO to a concentration of 100 mM, and the stock solution was made fresh for each experiment. Control wells consisted of medium containing 0.25% of DMSO alone were used for solvent control. […]

[2] = tested on: PC3 prostate cancer cells; assay: Cytotoxic activity of oxovanadium(IV) compounds, PC3; conditions: read-out: Cytotoxic Activity PC3
Protocol: (§1) The cytotoxicity of oxovanadium (W) complexes listed in Table 6 were tested against 9 different human cancer cell lines was performed using the MTT (3-[4,5-dimethylthiazol-2-yl]-2,5-diphenyl tetrazolium bromide) assay (Boehringer Mannheim Corp., Indianapolis, Ind.) as described previously (20). Briefly, exponentially growing tumor cells were seeded into a 96-well plate at a density of 4×10^4cells/well and incubated with medium containing the oxovanadium(IV) compounds concentrations ranging from 0.1 to 250 μM for 48 hours at 37° C. in a humidified 5% CO2 atmosphere. Triplicate wells were used for each treatment. To each well, 10 μl of MTT (0.5 mg/ml final concentration) was added and the plates were incubated at 37° C. for 4 hours to allow MTT to form formazan crystals by reacting with metabolically active cells . The formazan crystals were solubilized overnight at 37° C. in a solution containing 10% SDS in 0.01 M HCl. The absorbence of each well was measured in a microplate reader (Labsystems) at 540 nm and a reference wavelength of 690 nm. To translate the OD540 values into the number of live cells in each well, the OD540 values were compared to those on standard OD540—versus—cell number curves generated for each cell line. The percent survival was calculated using the formula: % survival=Live cell number[test]/Live cell number [control]×100. The IC50 values were calculated by non-linear regression analysis using an Graphpad Prism software version 2.0 (Graphpad Software, Inc., San Diego, Calif.).

[3] = tested on: Tera-2 testicular cancer cells; assay: Cytotoxic activity of oxovanadium(IV) compounds, TERA-2; conditions: read-out: Cytotoxic Activity TERA-2
Protocol: as §1

Molecule: [Cl-].[Cl-].[V+4].c1cc[cH-]c1.c1cc[cH-]c1 [VDC, VCp2Cl2]
- IC50 [1]: 19 µM

Molecule: bis(4,7-dimethyl-1,10-phenanthroline)sulfatooxovanadium(IV) [Compound 29]
- IC50 [2]: 1.7 µM
- IC50 [3]: 19.5 µM
